Measured values: US20080188499A1, “Carbo- and Hetero-Cyclic Antibiotics and Use Thereof” (priority 2004, published 2008)
Converted amounts (≈) assume the structure as drawn. Read-outs that look alike come from different tables or passages of the source.

Columns and labels:
E. coli ATCC 25922 = assay: MIC determination by broth microdilution, E. coli; type: cell-based, Escherichia coli
Protocol: (§1) Bacteria. Susceptibility tests were performed against several bacterial species following the recommendations from the National Committee for […] (NCCLS). The MICs were determined by a broth microdilution technique using a final volume of 100 μl of cation-adjusted Mueller Hinton Broth (MHBCA) and a bacterial inoculum of 10^5-10^6 Colony Forming Units (CFU)/ml. The inocula were verified and precisely determined by applying 10 μl drops of 10 fold dilutions onto Triptic Soy Agar plates. The CFU were counted after an incubation of 24 h at 35° C. Any experiment showing an inoculum that was more or less than 10^5-10^6 CFU/ml was rejected. Control antibiotics and test compounds were prepared at a concentration equivalent to 2 fold the highest desired final concentration. Compounds were then diluted directly in the 96-well microtiter plates by serial 2-fold dilutions using a multichannel pipette. Microtiter plates were incubated for 24 h at 35° C. and growth was recorded by using a microtiter plate reader at 650 nm as well as by visual observation. The MIC was defined as the lowest concentration of compound yielding no visible growth. At least two commercial antibiotics (e.g., imipenem and vancomycin) were always included as internal microtiter plate controls in each MIC assay.

DNA metabolism = assay: Mode of action studies: macromolecular biosynthesis assays (incorporation of radiolabeled precursors); type: cell-based; settings: FIG. 1; initial mode of action studies
Protocol: Mode of action studies. Macromolecular biosynthesis assays were performed to identify the microbial cellular processes selectively affected by antibiotic compounds. Exponentially growing bacteria in MHB were washed and diluted in a complete synthetic medium to an optical density of 0.2 (at 600 nm). Cells were then distributed in 96-well plates containing serially diluted antibiotic compounds and radiolabeled precursors. The radiolabeled precursors were D-[^3H]-alanine for peptidoglycan synthesis, [^3H]-thymidine for DNA synthesis, [^3H]-uridine for RNA synthesis and [^3H]-leucine for protein synthesis. Incorporation was allowed for 30 minutes at 35° C. before macromolecules were precipitated for 1 hour on ice in the presence of 10% trichloroacetic acid. The radioactive precipitates were then collected onto GC filters and the radioactivity measured by liquid scintillation counting. Data were expressed as the percentage of radioactivity incorporated compared to control cells grown in the absence of antibiotic compound.

S. aureus strain Newman = assay: In vivo efficacy: S. aureus model of systemic infection in the mouse; settings: for antimicrobial activity in vivo (viable bacteria in the kidneys): S. aureus systemic infection, administrated by gavage 1 hour post-infection, kidneys 5 hours after inoculation
Protocol: In vivo efficacy. The antimicrobial activity of compounds was also evaluated in a S. aureus model of systemic infection in the mouse. To produce the systemic infection, CD-1 female mice (20 g) were injected intra-peritoneally with 10^7 CFU of S. aureus strain Newman suspended in 0.5 ml of endotoxin-free PBS containing 5% mucin (w/v). The compounds were administrated at 1 hour post-infection and kidneys harvested and pooled, for each animal, 5 hours after bacterial inoculation. Tissues were homogenized in PBS and homogenates serially diluted and plated for CFU determination.

MRSA strains = assay: MIC determination by broth microdilution, antibiotic multi-resistant MRSA strains; type: cell-based, S. aureus
Protocol: as §1

[1] = system: Methicillin-Sensitive S. aureus strains (MSSA); assay: MIC determination, Methicillin-Sensitive S. aureus; type: cell-based; settings: Staphylococcus aureus
Protocol: as §1

E. faecalis = assay: MIC determination, Enterococci; type: cell-based; settings: Enterococcus faecalis
Protocol: as §1

Yersinia enterocolytica = assay: MIC determination, Yersinia enterocolytica; type: cell-based
Protocol: as §1

Burkholderia cepacia = assay: MIC determination, Burkholderia cepacia; type: cell-based
Protocol: as §1

anaerobic bacteria = assay: MIC determination, anaerobic bacteria; type: cell-based; settings: Bacteroides fragilis
Protocol: as §1
(§2) Fastidious bacteria. […]

Haemophilus influenzae = assay: MIC determination, Haemophilus influenzae; type: cell-based
Protocol: as §1, §2

[2] = system: Branhamella (Moraxella) catarrhalis; assay: MIC determination, Branhamella (Moraxella) catarrhalis; type: cell-based
Protocol: as §1, §2

[3] = system: bacterial genus Mycobacterium; assay: MIC determination, Mycobacterium; type: cell-based, Mycobacterium smegmatis
Protocol: as §1, §2

B. cereus = assay: MIC determination, B. cereus; type: cell-based; settings: Bacillus cereus
Protocol: as §1

B. subtilis = assay: MIC determination, B. subtilis; type: cell-based; settings: Bacillus subtilis
Protocol: as §1

B. atrophaeus = assay: MIC determination, B. atrophaeus; type: cell-based; settings: Bacillus atrophaeus
Protocol: as §1

[4] = Escherichia coli, ATCC25922, E. coli ATCC 25922, read-out: MIC

With O=[N+]([O-])c1ccc(C=Cc2nc(Nc3ccc(O)c(O)c3)c3ccccc3n2)o1 [Example 1, Compound VI, 2-[2-(5-nitro-2-furyl)vinyl]-4-(3,4-dihydroxyanilino)quinazoline] the MIC (E. coli ATCC 25922; [4]) was 0.5 µg/mL (≈ 1.28 µM), the “mode of action (cellular process affected, incorporation of radiolabeled precursors into macromolecules)” value (DNA metabolism) was “inhibition of DNA metabolism” and the toxicity in vivo (S. aureus strain Newman; S. aureus systemic infection model) was “relatively low toxicity”. For the same molecule, the “antimicrobial activity in vivo (viable bacteria in the kidneys)” value (S. aureus strain Newman; listed as 2-[2-(5-nitro-2-furyl)vinyl]-4-(3,4-dihydroxyanilino)-quinazoline) was “active in vivo” and the “antimicrobial activity in vivo (viable bacteria in the kidneys)” value (S. aureus strain Newman; listed as Example 1 compound VI) was “reduced the presence of viable bacteria in the kidneys”.
CN1CCN(c2cc3nc(/C=C/c4ccc([N+](=O)[O-])o4)nc(Nc4ccc(O)c(O)c4)c3cc2F)CC1 [Example VIII compound “q”] gave an MIC (MRSA strains; Staphylococcus aureus, MRSA, MRSA strain Sa211c, read-out: MIC) of 8 µg/mL (≈ 15.8 µM), an MIC (MRSA strains; Staphylococcus aureus, MRSA, MRSA strain Sa212c, read-out: MIC) of 8 µg/mL (≈ 15.8 µM) and an MIC (MRSA strains; Staphylococcus aureus, MRSA, MRSA strain Sa220c, read-out: MIC) of 4 µg/mL (≈ 7.9 µM). For the same molecule, the MIC (MRSA strains; Staphylococcus aureus, MRSA, MRSA strain Sa224c, read-out: MIC) was 8 µg/mL (≈ 15.8 µM), the MIC (MRSA strains; Staphylococcus aureus, MRSA, MRSA strain Sa228c, read-out: MIC) was 8 µg/mL (≈ 15.8 µM) and the MIC (MRSA strains; Staphylococcus aureus, MRSA, MRSA strain Sa234c, read-out: MIC) was 8 µg/mL (≈ 15.8 µM). It also gave an MIC (MRSA strains; Staphylococcus aureus, MRSA, MRSA strain Sa248c, read-out: MIC) of 8 µg/mL (≈ 15.8 µM), an MIC (MRSA strains; Staphylococcus aureus, MRSA, MRSA strain Sa249c, read-out: MIC) of 8 µg/mL (≈ 15.8 µM) and an MIC (MRSA strains; Staphylococcus aureus, MRSA, MRSA strain Sa253c, read-out: MIC) of 8 µg/mL (≈ 15.8 µM). The MIC (MRSA strains; Staphylococcus aureus, MRSA, Methicillin-Resistant S. aureus strains (MRSA), read-out: MIC) was 4 to 8 µg/mL (≈ 7.9 to 15.8 µM), the MIC [1] was 4 to 8 µg/mL (≈ 7.9 to 15.8 µM) and the MIC (E. faecalis) was 8 µg/mL (≈ 15.8 µM). The MIC (Yersinia enterocolytica) was 8 µg/mL (≈ 15.8 µM), the MIC (Burkholderia cepacia) was 8 µg/mL (≈ 15.8 µM) and the MIC (anaerobic bacteria) was 8 µg/mL (≈ 15.8 µM). For the same molecule, the MIC (Haemophilus influenzae) was 1 µg/mL (≈ 1.97 µM), the MIC [2] was 1 µg/mL (≈ 1.97 µM) and the MIC [3] was 8 µg/mL (≈ 15.8 µM). For the same molecule, the MIC (B. cereus) was 8 µg/mL (≈ 15.8 µM), the MIC (B. subtilis) was 8 µg/mL (≈ 15.8 µM) and the MIC (B. atrophaeus) was 8 µg/mL (≈ 15.8 µM).
With CCn1cc(C(=O)O)c(=O)c2cc(F)c(N3CCNCC3)cc21 [Norfloxacin] the MIC (E. coli ATCC 25922; [4]) was 0.03 to 0.06 µg/mL (≈ 0.0939 to 0.188 µM).
CN[C@H](CC(C)C)C(=O)N[C@H]1C(=O)N[C@@H](CC(N)=O)C(=O)N[C@H]2C(=O)N[C@H]3C(=O)N[C@H](C(=O)N[C@H](C(=O)O)c4cc(O)cc(O)c4-c4cc3ccc4O)[C@H](O)c3ccc(c(Cl)c3)Oc3cc2cc(c3O[C@@H]2O[C@H](CO)[C@@H](O)[C@H](O)[C@H]2O[C@H]2C[C@](C)(N)[C@H](O)[C@H](C)O2)Oc2ccc(cc2Cl)[C@H]1O [Vancomycin] showed an MIC (E. coli ATCC 25922; Escherichia coli, ATCC25922) of over 64 µg/mL.
Molecule Gentamicin [reference compound] has an MIC (E. coli ATCC 25922; E. coli ATCC 25922) of 0.5 to 2 µg/mL, an MIC (MRSA strains; MRSA strain Sa211c) of 1 µg/mL and an MIC (MRSA strains; MRSA strain Sa212c) of 0.25 µg/mL. It also gave an MIC (MRSA strains; MRSA strain Sa220c) of 0.5 µg/mL, an MIC (MRSA strains; MRSA strain Sa224c) of 0.25 µg/mL and an MIC (MRSA strains; MRSA strain Sa228c) of 32 µg/mL. It also gave an MIC (MRSA strains; MRSA strain Sa234c) of 1 µg/mL.
